# Results taken from PubChem BioAssay (NCI).
# Where “and” joins values, the source holds several entries; their conditions need not be identical. Equal values may be shown once.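 All cell lines were grown in 96-well plates and treated with compound for 48 hours. GI50 marks 50% less growth. At the TGI there is no net growth.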
# Assays:
# Assay in all cases: NCI anticancer screen, dose series, 48 h
# MCF7 breast = system: MCF7 breast
# TK-10 renal = system: TK-10 renal
# PC-3 prostate = system: PC-3 prostate
# OVCAR-3 ovarian = system: OVCAR-3 ovarian
# HCT-116 colon = system: HCT-116 colon
# HOP-92 NSCLC = system: HOP-92 NSCLC
# EKVX NSCLC = system: EKVX NSCLC
# CCRF-CEM leukemia = system: CCRF-CEM leukemia
# T-47D breast = system: T-47D breast
# RXF 393 renal = system: RXF 393 renal
Compound,TGI (MCF7 breast),TGI (TK-10 renal),TGI (PC-3 prostate),TGI (OVCAR-3 ovarian),TGI (HCT-116 colon),TGI (HOP-92 NSCLC),TGI (EKVX NSCLC),TGI (CCRF-CEM leukemia) [µM],TGI (T-47D breast),TGI (RXF 393 renal),GI50 (TK-10 renal) [µM],GI50 (PC-3 prostate) [µM],GI50 (OVCAR-3 ovarian) [µM],GI50 (HOP-92 NSCLC) [µM],GI50 (EKVX NSCLC) [µM],GI50 (CCRF-CEM leukemia) [µM],GI50 (T-47D breast) [µM],GI50 (RXF 393 renal) [µM],GI50 (MCF7 breast) [µM],GI50 (HCT-116 colon) [µM]
Cc1nc(N)sc1N=Nc1ccccc1Br,70.2 µM,70.4 µM,63 µM,> 79.9 µM,55.1 µM,46.1 µM,76.3 µM,> 100,57.2 µM,43.6 µM,–,–,–,–,–,–,–,–,–,–
CCCC(=O)Nc1cn(COC)c(C(=O)N2C[C@@H]3C[C@]34C2=CC(=O)c2[nH]cc(C)c24)n1,50 µM and 11.6 µM,19.1 µM and 6.18 µM,24.1 µM and 19 µM,27.2 µM and 7.03 µM,50 µM and 82.4 µM,20.6 µM and 18.2 µM,> 5 µM and 38.2 µM,–,38.4 µM and 21.1 µM,16.5 µM and 4.67 µM,3,5.65,2.98,5.51,14.8,1.96,7.01,2.21,–,–
COc1cc(N=Nc2ccc(O)c3ncccc23)c2ncccc2c1,> 100 µM,> 100 µM,> 100 µM,> 100 µM,> 100 µM,> 100 µM,> 100 µM,> 100,> 100 µM,28.2 µM,9.81,2.84,4.58,1.97,4.08,0.459,3.23,2.72,2.18,2.56
C=CCC1(c2ccc(OC)cc2)C=CC(=O)CC1 (configuration not stated),> 100 µM,> 100 µM,> 100 µM,> 100 µM,> 100 µM,> 100 µM,> 100 µM,> 100,> 100 µM,> 100 µM,–,–,–,–,–,–,–,–,–,–
NC(N)=N/N=C/c1c(Cl)cccc1Cl,41.5 µM,66.3 µM,> 100 µM,> 100 µM,36.1 µM,32.7 µM,47.5 µM,> 100,39.6 µM,35.8 µM,21.9,31,28.1,6.66,15.9,28.5,14.7,15.5,17.2,17.2
CCC[CH2][Sn]([CH2]CCC)([O]C(=O)c1ccc(OC)c(OC)c1OC)[O][Sn]([CH2]CCC)([CH2]CCC)[O]C(=O)c1ccc(OC)c(OC)c1OC,1.28 µM,0.716 µM,2.46 µM,1.18 µM,0.833 µM,0.554 µM,2.76 µM,0.161,0.295 µM,0.38 µM,0.306,1.2,0.406,0.159,1.39,0.0133,0.0311,0.153,0.133,0.276
Cc1c(N(C)C)ccc2c(=O)c3cccc(CC(=O)O)c3oc12,> 100 µM,> 100 µM,> 100 µM,> 100 µM,> 100 µM,> 100 µM,> 100 µM,> 100,> 100 µM,> 100 µM,–,–,–,–,–,–,–,–,–,–
NS(=O)(=O)c1ccc(N=Nc2c(O)c(C(=O)O)cc3ccccc23)cc1,> 100 µM,> 100 µM,> 100 µM,> 100 µM,> 100 µM,> 100 µM,> 100 µM,> 100,> 100 µM,> 100 µM,–,–,–,–,–,–,–,–,–,–
